Data published in US11046699B2, “Pyrazolo-pyrimidin-amino-cycloalkyl compounds and their therapeutic uses” (RAPT THERAPEUTICS, INC., priority 2018, dated 2021).
pIC50: −log10 of the molar value. Structures can show the parent of a compound that is named as a salt. Where two headings read alike, the source gives them in different places.

Target: GCN2 (Homo sapiens, UniProt Q9P2K8)
Assay: GCN2 enzymatic endpoint assay: phosphorylation of GFP-eIF2α measured by TR-FRET (Lanthascreen)
Type: biochemical
Outline: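 Reaction started with 2 μM ATP and 80 nM GFP-labelled eIF2α substrate at room temperature, stopped with EDTA after 90 minutes. Phospho-eIF2α detected by terbium-labelled antibody TR-FRET; activity taken as 520 nm (fluorescein) to 495 nm (terbium) emission ratio.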

[1] = tested as described in Example 77, compound and/or hydrochloride, dihydrochloride or trifluoroacetic acid salt, read-out: IC 50 Activity
[2] = GCN2 biochemical IC50, 4 nM GCN2, 2 μM ATP, 80 nM GFP-eIF2α, 90 min RT, read-out: GCN2 activity

Sequence of GCN2 (Q9P2K8 whole entry): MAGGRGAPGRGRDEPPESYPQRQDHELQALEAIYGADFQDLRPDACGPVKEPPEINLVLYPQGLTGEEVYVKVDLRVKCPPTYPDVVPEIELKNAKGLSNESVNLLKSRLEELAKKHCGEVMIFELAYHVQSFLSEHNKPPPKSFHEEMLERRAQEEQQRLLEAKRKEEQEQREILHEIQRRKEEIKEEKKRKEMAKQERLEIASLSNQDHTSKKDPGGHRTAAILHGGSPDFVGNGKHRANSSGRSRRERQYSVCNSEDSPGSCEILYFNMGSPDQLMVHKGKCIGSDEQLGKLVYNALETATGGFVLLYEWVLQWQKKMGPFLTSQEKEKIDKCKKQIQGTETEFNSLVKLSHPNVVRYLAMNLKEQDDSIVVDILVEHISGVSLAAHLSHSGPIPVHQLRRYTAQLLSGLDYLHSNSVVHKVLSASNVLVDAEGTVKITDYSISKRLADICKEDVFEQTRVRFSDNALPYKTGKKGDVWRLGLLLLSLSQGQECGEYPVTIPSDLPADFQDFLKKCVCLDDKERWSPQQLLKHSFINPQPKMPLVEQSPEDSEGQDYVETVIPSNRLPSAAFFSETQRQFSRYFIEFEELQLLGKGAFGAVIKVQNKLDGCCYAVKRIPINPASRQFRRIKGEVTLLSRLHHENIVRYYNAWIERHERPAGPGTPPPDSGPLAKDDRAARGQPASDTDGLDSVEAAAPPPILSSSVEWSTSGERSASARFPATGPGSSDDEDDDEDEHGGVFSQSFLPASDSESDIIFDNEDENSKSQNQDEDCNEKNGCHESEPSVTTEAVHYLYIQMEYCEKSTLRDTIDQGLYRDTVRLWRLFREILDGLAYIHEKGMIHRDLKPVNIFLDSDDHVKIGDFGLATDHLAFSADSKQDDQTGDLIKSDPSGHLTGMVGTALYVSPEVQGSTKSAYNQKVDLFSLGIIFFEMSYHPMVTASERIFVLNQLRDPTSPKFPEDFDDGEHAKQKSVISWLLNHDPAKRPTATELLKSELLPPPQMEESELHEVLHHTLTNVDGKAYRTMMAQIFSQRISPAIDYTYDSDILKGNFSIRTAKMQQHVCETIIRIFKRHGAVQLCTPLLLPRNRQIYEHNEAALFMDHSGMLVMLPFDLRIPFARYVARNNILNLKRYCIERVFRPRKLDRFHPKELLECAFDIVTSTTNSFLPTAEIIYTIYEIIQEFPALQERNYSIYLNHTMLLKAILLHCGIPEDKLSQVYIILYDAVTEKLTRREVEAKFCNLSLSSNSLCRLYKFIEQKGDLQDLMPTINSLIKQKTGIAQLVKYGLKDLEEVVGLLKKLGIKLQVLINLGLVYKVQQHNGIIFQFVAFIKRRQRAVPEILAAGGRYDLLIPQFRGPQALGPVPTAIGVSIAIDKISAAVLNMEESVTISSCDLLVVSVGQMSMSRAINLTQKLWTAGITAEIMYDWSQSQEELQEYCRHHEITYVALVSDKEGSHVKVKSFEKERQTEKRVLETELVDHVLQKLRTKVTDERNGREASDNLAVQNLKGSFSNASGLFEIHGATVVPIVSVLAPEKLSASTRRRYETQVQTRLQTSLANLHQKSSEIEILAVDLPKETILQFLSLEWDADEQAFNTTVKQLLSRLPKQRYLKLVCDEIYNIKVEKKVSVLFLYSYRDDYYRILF

SMILES | pIC50 [1] | pIC50 [2]
CNC(=O)[C@@H]1CC[C@@H](Nc2ncc3c(Br)nn(-c4ccc(N5CCOCC5)c(C#N)c4)c3n2)C1 [(1R,3R)-3-((3-bromo-1-(3-cyano-4-morpholinophenyl)-1H-pyrazolo[3,4-d]pyrimidin-6-yl)amino)-N-methylcyclo-pentane-1-carboxamide] | 6.00 to 6.30 | 
CN(CC1(C)COC1)C(=O)C1(C)CC[C@@H](Nc2ncc3c(Br)nn(-c4cc(F)c5ncccc5c4)c3n2)C1 (stereo partly shown) | > 7.60 | 
O=S(=O)(NC1CC1)[C@@H]1CC[C@@H](Nc2ncc3c(Br)nn(-c4ccc5ncccc5c4)c3n2)C1 [(1R,3R)-3-((3-bromo-1-(quinolin-6-yl)-1H-pyrazolo[3,4-d]pyrimidin-6-yl)amino)-N-cyclopropylcyclopentane-1-sulfonamide] | 6.70 to 7.60 | 
CNC(=O)[C@]1(C)CC[C@@H](Nc2ncc3c(Br)nn(-c4ccc5nc[nH]c(=O)c5c4)c3n2)C1 | 6.70 to 7.60 | 
Cc1nnc(-c2ccc(-n3nc(Br)c4cnc(N[C@@H]5CC[C@@](C)(C(=O)NCC(F)F)C5)nc43)cc2CCC#N)s1 [(1R,3R)-3-[[3-bromo-1-[3-(2-cyanoethyl)-4-(5-methyl-1,3,4-thiadiazol-2-yl)phenyl]pyrazolo[3,4-d]pyrimidin-6-yl]amino]-N-(2,2-difluoroethyl)-1-methyl-cyclopentanecarboxamide] | 6.70 to 7.60 | 
O=C(N[C@@H]1CCNC[C@@H]1F)[C@@H]1CC[C@@H](Nc2ncc3c(Br)nn(-c4cc(F)c5ncccc5c4)c3n2)C1 [(1R,3R)-3-((3-bromo-1-(8-fluoroquinolin-6-yl)-1H-pyrazolo[3,4-d]pyrimidin-6-yl)amino)-N-((3S,4R)-3-fluoropiperidin-4-yl)cyclo-pentane-1-carboxamide] | > 7.60 | 
CNC(=O)C1(C(C)C#N)CC[C@@H](Nc2ncc3c(Br)nn(-c4ccc(-c5nnc(C)s5)c(CCC#N)c4)c3n2)C1 (stereo partly shown) | 6.70 to 7.60 | 
CNC(=O)[C@]1(C)CC[C@@H](Nc2ncc3c(Br)nn(-c4cnc5c(CCCN)cccc5c4)c3n2)C1 [(1R,3R)-3-[[1-[8-(3-aminopropyl)-3-quinolyl]-3-bromo-pyrazolo[3,4-d]pyrimidin-6-yl]amino]-N,1-dimethyl-cyclopentanecarboxamide] | 6.70 to 7.60 | 
Cc1nnc(-c2ccc(-n3nc(Br)c4cnc(N[C@@H]5CCC[C@@H](P(C)(C)=O)C5)nc43)cc2)s1 [3-bromo-N-[(1R,3R)-3-dimethylphosphoryl-cyclohexyl]-1-[4-(5-methyl-1,3,4-thiadiazol-2-yl)phenyl]pyrazolo[3,4-d]pyrimidin-6-amine] | 6.70 to 7.60 | 
O=S(=O)(NC1CCOCC1)[C@@H]1CC[C@@H](Nc2ncc3c(Br)nn(-c4ccc5ncccc5c4)c3n2)C1 [(1R,3R)-3-((3-bromo-1-(quinolin-6-yl)-1H-pyrazolo[3,4-d]pyrimidin-6-yl)amino)-N-(tetrahydro-2H-pyran-4-yl)cyclopentane-1-sulfonamide] | 6.30 to 6.70 | 
CNC(=O)[C@]1(C)CC[C@@H](Nc2ncc3c(Br)nn(-c4ccc(-c5nnc(C(C)(C)N)s5)c(F)c4)c3n2)C1 [(1R,3R)-3-[[1-[4-[5-(1-amino-1-methyl-ethyl)-1,3,4-thiadiazol-2-yl]-3-fluoro-phenyl]-3-bromo-pyrazolo[3,4-d]pyrimidin-6-yl]amino]-N,1-dimethyl-cyclopentanecarboxamide] | > 7.60 | 
O=S(=O)([C@@H]1CC[C@@H](Nc2ncc3c(Br)nn(-c4ccc5ncccc5c4)c3n2)C1)N1CCOCC1 [3-bromo-N-((1R,3R)-3-(morpholinosulfonyl)cyclopentyl)-1-(quinolin-6-yl)-1H-pyrazolo [3,4-d]pyrimidin-6-amine] | 6.30 to 6.70 | 
CNC(=O)[C@]1(CCOC)CC[C@@H](Nc2ncc3c(Br)nn(-c4ccc(-c5nnc(C)s5)cc4)c3n2)C1 | 6.70 to 7.60 | 
CNC(=O)[C@]1(C)CC[C@@H](Nc2ncc3c(Br)nn(-c4ccc(C5=NOCC5)cc4)c3n2)C1 [(1R,3R)-3-[[3-bromo-1-[4-(4,5-dihydro-isoxazol-3-yl)phenyl]pyrazolo[3,4-d]pyrimidin-6-yl]amino]-N,1-dimethyl-cyclopentanecarboxamide] | 6.70 to 7.60 | 
CNC(=O)[C@]1(C)CC[C@@H](Nc2ncc3c(Br)nn(-c4ccc5c(c4)CN(C(=O)C4CNC4)C5)c3n2)C1 [(1R,3R)-3-[[1-[2-(azetidine-3-carbonyl)isoindolin-5-yl]-3-bromo-pyrazolo[3,4-d]pyrimidin-6-yl]amino]-N,1-dimethyl-cyclopentanecarboxamide] | 6.70 to 7.60 | 
N#Cc1cc(-n2nc(Br)c3cnc(N[C@@H]4CC[C@@H](C(=O)N[C@@H]5CNC[C@@H]5F)C4)nc32)cc2cccnc12 [(1R,3R)-3-((3-bromo-1-(8-cyanoquinolin-6-yl)-1H-pyrazolo[3,4-d]pyrimidin-6-yl)amino)-N-((3R,4S)-4-fluoropyrrolidin-3-yl)cyclo-pentane-1-carboxamide] | > 7.60 | 
Cc1nnc(-c2ccc(-n3nc(Br)c4cnc(NC5CC(S(C)(=O)=O)C5)nc43)cc2)s1 (stereo not shown) [3-bromo-N-(3-methylsulfonylcyclobutyl)-1-[4-(5-methyl-1,3,4-thiadiazol-2-yl)phenyl] pyrazolo[3,4-d]pyrimidin-6-amine] | 6.70 to 7.60 | 
CNC(=O)[C@]1(C)CC[C@@H](Nc2ncc3c(Br)nn(-c4ccc(C#N)c(OCC(C)O)c4)c3n2)C1 (stereo partly drawn) [(1R,3R)-3-[[3-bromo-1-[4-cyano-3-(2-hydroxypropoxy)phenyl]pyrazolo [3,4-d]pyrimidin-6-yl]amino]-N,1-dimethyl-cyclopentanecarboxamide] | 6.70 to 7.60 | 
O=C(NC1CCS(=O)(=O)CC1)[C@@H]1CC[C@@H](Nc2ncc3c(Br)nn(-c4ccc5ncccc5c4)c3n2)C1 | 6.70 to 7.60 | 
O=C(N[C@@H]1CNC[C@H]1F)[C@@H]1CC[C@@H](Nc2ncc3c(Br)nn(-c4cc(F)c5ncccc5c4)c3n2)C1 [(1R,3R)-3-((3-bromo-1-(8-fluoroquinolin-6-yl)-1H-pyrazolo[3,4-d]pyrimidin-6-yl)amino)-N-((3R,4R)-4-fluoropyrrolidin-3-yl)cyclo-pentane-1-carboxamide] | 6.70 to 7.60 | 
CNC(=O)[C@]1(C)CC[C@@H](Nc2ncc3c(Br)nn(-c4cc(C#N)cc(OCCOC)c4)c3n2)C1 [(1R,3R)-3-[[3-bromo-1-[3-cyano-5-(2-methoxyethoxy)phenyl]pyrazolo[3,4-d]pyrimidin-6-yl]amino]-N,1-dimethyl-cyclopentanecarboxamide] | 6.70 to 7.60 | 

Results, then the compound that gave them:

pIC50 [1] | pIC50 [2] | SMILES
 | 6.70 to 7.60 | CNC(=O)C1(C)CC[C@@H](Nc2ncc3c(Br)nn(-c4ccc(-c5cccnc5)c(C#N)c4)c3n2)C1 (stereo partly drawn) [Example 44, (3R)-3-((3-bromo-1-(3-cyano-4-(pyridin-3-yl)phenyl)-1H-pyrazolo[3,4-d]pyrimidin-6-yl)amino)-N,1-dimethylcyclopentane-1-carboxamide; 2,2,2-trifluoroacetic acid]
 | 6.70 to 7.60 | COCCNC(=O)[C@@H]1CC[C@@H](Nc2ncc3c(Br)nn(-c4ccc5cnccc5c4)c3n2)C1 [Example 6, (1R,3R)-3-((3-bromo-1-(isoquinolin-6-yl)-1H-pyrazolo[3,4-d]pyrimidin-6-yl)amino)-N-(2-methoxyethyl)cyclopentane-1-carboxamide]
6.70 to 7.60 |  | O=C([C@@H]1CC[C@@H](Nc2ncc3c(Br)nn(-c4ccc5ncccc5c4)c3n2)C1)N1CCNCC1 [((1R,3R)-3-((3-bromo-1-(quinolin-6-yl)-1H-pyrazolo[3,4-d]pyrimidin-6-yl)amino)cyclo-pentyl)(piperazin-1-yl)methanone]
 | > 7.60 | CNC(=O)[C@]1(C)CC[C@@H](Nc2ncc3c(Br)nn(-c4cc(CNS(C)(=O)=O)c5ncccc5c4)c3n2)C1 [Example 33, (1R,3R)-3-((3-bromo-1-(8-(methylsulfonamidomethyl)quinolin-6-yl)-1H-pyrazolo[3,4-d]pyrimidin-6-yl)amino)-N,1-dimethylcyclopentane-1-carboxamide; 2,2,2-trifluoroacetic acid]
6.70 to 7.60 |  | CNC(=O)[C@]1(C)CC[C@@H](Nc2ncc3c(Br)nn(-c4cc(CN5CCNCC5=O)c5ncccc5c4)c3n2)C1 [(1R,3R)-3-[[3-bromo-1-[8-[(2-oxopiperazin-1-yl)methyl]-6-quinolyl]pyrazolo[3,4-d]pyrimidin-6-yl]amino]-N,1-dimethyl-cyclopentanecarboxamide]
 | 6.70 to 7.60 | CNC(=O)[C@]1(CC(F)F)CC[C@@H](Nc2ncc3c(Br)nn(-c4ccc(-c5nnc(C)s5)c(CCC#N)c4)c3n2)C1 [Example 53, (1R,3R)-3-((3-bromo-1-(3-(2-cyanoethyl)-4-(5-methyl-1,3,4-thiadiazol-2-yl)phenyl)-1H-pyrazolo[3,4-d]pyrimidin-6-yl)amino)-1-(2,2-difluoroethyl)-N-methylcyclopentane-1-carboxamide; 2,2,2-trifluoroacetic acid]
 | > 7.60 | CNC(=O)[C@]1(C)CC[C@@H](Nc2ncc3c(Br)nn(-c4cc(Cl)cc(CCN)c4)c3n2)C1 [Example 41, (1R,3R)-3-((1-(3-(2-aminoethyl)-5-chlorophenyl)-3-bromo-1H-pyrazolo[3,4-d]pyrimidin-6-yl)amino)-N,1-dimethylcyclopentane-1-carboxamide hydrochloride]
 | 6.70 to 7.60 | Brc1nn(-c2ccc3ncccc3c2)c2nc(N[C@@H]3CCC(N4CCOCC4)C3)ncc12 (mixture of isomers) [Example 7, 3-bromo-N-(3-morpholinocyclopentyl)-1-(quinolin-6-yl)-1H-pyrazolo[3,4-d]pyrimidin-6-amine]
 | > 7.60 | CNC(=O)[C@]1(C)CC[C@@H](Nc2ncc3c(Br)nn(-c4cc(C#N)cc(OCC5(F)CNC5)c4)c3n2)C1 [Example 36, (1R,3R)-3-((3-bromo-1-(3-cyano-5-((3-fluoroazetidin-3-yl)methoxy)phenyl)-1H-pyrazolo[3,4-d]pyrimidin-6-yl)amino)-N,1-dimethylcyclopentane-1-carboxamide; 2,2,2-trifluoroacetic acid]
 | 6.70 to 7.60 | Cc1nnc(-c2ccc(-n3nc(Br)c4cnc(N[C@@H]5CC[C@@](C)(C(N)=O)C5)nc43)cc2)s1 [Example 60, (1R,3R)-3-((3-bromo-1-(4-(5-methyl-1,3,4-thiadiazol-2-yl)phenyl)-1H-pyrazolo[3,4-d]pyrimidin-6-yl)amino)-1-methylcyclopentane-1-carboxamide]
